32 compounds from ChEMBL document CHEMBL4651402, “Screening of ~5500 FDA-approved drugs and clinical candidates for anti-SARS-CoV-2 activity” (2021) can be followed below.

The first assay concerns SARS-CoV-2. Nature of the assay: microbe, parasite or virus in culture. The following applies: Severe acute respiratory syndrome coronavirus 2, Vero C1008, 48 h.
On to `CCCCNC(=N)NC(=N)N` [BUFORMIN], for which the IC50 was over 20 µM.

`O=C(c1ccc(Nc2ccnc3cc(C(F)(F)F)ccc23)cc1)N1CCN(S(=O)(=O)c2ccc(F)cc2)CC1` [LOSULAZINE]: the IC50 is over 20 µM.

In turn, `CC(=O)Nc1ccc(O)cc1` [ACETAMINOPHEN] displayed an IC50 of over 20 µM.

Compound `CC(C)(C)C(=O)NNCc1ccccc1` [PIVHYDRAZINE] yielded an IC50 of over 20 µM.

`NC(=O)CCCCC1CCSS1` (centres undefined) [THIOCTIC ACID AMIDE] returned an IC50 of over 20 µM.

On to `O=C(O)CN(CCN(CC(=O)O)CC(=O)O)CCN(CC(=O)O)CC(=O)O` [PENTETIC ACID], for which the IC50 was over 20 µM.

Compound `CC(C)C[C@H]1C(=O)N2CCC[C@H]2[C@]2(O)O[C@](NC(=O)[C@@H]3C=C4c5cccc6[nH]c(Br)c(c56)CC4N(C)C3)(C(C)C)C(=O)N12` (some centres undefined) yielded an IC50 of over 20 µM.

The compound `C/C=C/C/C=C/CCC(=O)[C@H]1O[C@H]1C(N)=O` [CERULENIN] gave an IC50 of over 20 µM.

On to `CN1[C@@H]2CC[C@H]1C[C@@H](OC(=O)C(CO)c1ccccc1)C2` (some centres undefined) [ATROPINE], for which the IC50 was over 20 µM.

In turn, `Cn1c(=O)c2nc(C3CCCC3)[nH]c2n(C)c1=O` [8-CYCLOPENTYLTHEOPHYLLINE] gave an IC50 of over 20 µM.

`CCCCCCCCCCCC[N+](C)(C)CCOc1ccccc1` [DOMIPHEN]: the IC50 is over 20 µM.

The compound `N=C(N)NCCCCNC(=N)N` [ARCAINE] returned an IC50 of over 20 µM.

The compound `O=C(O)c1ccc(NC(=O)C(Cc2ccc(O)cc2)NC(=O)c2ccccc2)cc1` (centres undefined) registered an IC50 of over 20 µM.

Compound `CCC(C)(C)c1ccc(CC(C)CN2C[C@@H](C)O[C@@H](C)C2)cc1` (some centres undefined) [AMOROLFINE] registered an IC50 of over 20 µM.

`O=[N+]([O-])c1c(Cl)cccc1-c1c[nH]cc1Cl` [PYRROLNITRIN] came in with an IC50 of over 20 µM.

Turning to `O=C1CCC(c2ccccc2)(C2CCN(Cc3ccccc3)CC2)C(=O)N1` (centres undefined) [BENZETIMIDE], the IC50 was over 20 µM.

In turn, `Cc1cc(CC(=O)O)n(C)c1[14C](=O)c1ccc(Cl)cc1` displayed an IC50 of over 20 µM.

Compound `COc1c2ccoc2cc2oc(C)cc(=O)c12` [VISNAGIN] yielded an IC50 of over 20 µM.

`CN1[C@@H]2C[C@@H](OC(=O)[C@@](O)(CO)c3ccccc3)C[C@H]1[C@@H]1O[C@@H]12` showed an IC50 of over 20 µM.

In turn, `CC(C)(C)C(=O)OCOC(=O)[C@@H]1N2C(=O)[C@@H](NC(=O)[C@H](N)c3ccccc3)[C@H]2SC1(C)C` [PIVAMPICILLIN] gave an IC50 of over 20 µM.

`Cc1c(C(=O)N2CCOc3ccc(-c4ccc(N)nc4)cc3C2)ccc(S(C)(=O)=O)c1F` came in with an IC50 of over 20 µM.

As to `CC(C(O)c1ccc(O)cc1)N1CCC(Cc2ccccc2)CC1` (centres undefined) [IFENPRODIL], the IC50 was over 20 µM.

In turn, `Cn1cnc2c(F)c(Nc3ccc(Br)cc3F)c(C(=O)NOCCO)cc21` [BINIMETINIB] registered an IC50 of over 20 µM.

The compound `C[C@@H]1C(=O)O[C@H]2C[C@@]34[C@H]5C[C@@H](C(C)(C)C)[C@]36[C@@H](OC(=O)[C@@H]6O)O[C@@]4(C(=O)O5)[C@]21O` [GINKGOLIDE A] returned an IC50 of over 20 µM.

With `Cc1cc(S(N)(=O)=O)ccc1NC(=O)COc1ccc(Cl)cc1C(=O)c1cc(Cl)cc(C#N)c1`, the IC50 is over 20 µM.

As to `CC1(C)CN(C(=O)c2ccc(-c3cccc4nc(NC(=O)C5CC5)nn34)cc2)C1` [SOLCITINIB], the IC50 is over 20 µM.

In turn, `COc1cc2occc2c2oc(=O)ccc12` [ISOBERGAPTENE] registered an IC50 of over 20 µM.

As to `OC[C@@H](O)[C@H](O)[C@@H](O)CO` [XYLITOL], the IC50 is over 20 µM.

Regarding `CC(=O)OCC(=O)Nc1cc(C#N)cc(NC(=O)COC(C)=O)c1Cl` [ACREOZAST], the IC50 was over 20 µM.

For the compound `NCC(O)c1ccc(O)cc1` (centres undefined) [OCTOPAMINE], the IC50 was over 20 µM.

`NC(=O)c1ccc(N(C(N)=O)c2c(F)cccc2F)nc1-c1ccc(F)cc1F` [VX-702] displayed an IC50 of over 20 µM.

Take `CCCCCCCCCCCCOS(=O)(=O)O`: the IC50 is over 20 µM.

The assay is the same for the next values; noted with them: Severe acute respiratory syndrome coronavirus 2, Vero C1008, 48 h, read-out: pIC50 (converted).
Consider `CCCCNC(=N)NC(=N)N` [BUFORMIN], for which the IC50 was over 20 µM.

`O=C(c1ccc(Nc2ccnc3cc(C(F)(F)F)ccc23)cc1)N1CCN(S(=O)(=O)c2ccc(F)cc2)CC1` [LOSULAZINE]: the IC50 is over 20 µM.

Take `CC(=O)Nc1ccc(O)cc1` [ACETAMINOPHEN]: the IC50 was over 20 µM.

Regarding `CC(C)(C)C(=O)NNCc1ccccc1` [PIVHYDRAZINE], the IC50 was over 20 µM.

Consider `NC(=O)CCCCC1CCSS1` (centres undefined) [THIOCTIC ACID AMIDE], for which the IC50 is over 20 µM.

As for `O=C(O)CN(CCN(CC(=O)O)CC(=O)O)CCN(CC(=O)O)CC(=O)O` [PENTETIC ACID], the IC50 is over 20 µM.

On to `CC(C)C[C@H]1C(=O)N2CCC[C@H]2[C@]2(O)O[C@](NC(=O)[C@@H]3C=C4c5cccc6[nH]c(Br)c(c56)CC4N(C)C3)(C(C)C)C(=O)N12` (some centres undefined), for which the IC50 is over 20 µM.

Turning to `C/C=C/C/C=C/CCC(=O)[C@H]1O[C@H]1C(N)=O` [CERULENIN], the IC50 is over 20 µM.

In the case of `CN1[C@@H]2CC[C@H]1C[C@@H](OC(=O)C(CO)c1ccccc1)C2` (some centres undefined) [ATROPINE], the IC50 was over 20 µM.

Turning to `Cn1c(=O)c2nc(C3CCCC3)[nH]c2n(C)c1=O` [8-CYCLOPENTYLTHEOPHYLLINE], the IC50 is over 20 µM.

Take `CCCCCCCCCCCC[N+](C)(C)CCOc1ccccc1` [DOMIPHEN]: the IC50 is over 20 µM.

On to `N=C(N)NCCCCNC(=N)N` [ARCAINE], for which the IC50 is over 20 µM.

As to `O=C(O)c1ccc(NC(=O)C(Cc2ccc(O)cc2)NC(=O)c2ccccc2)cc1` (centres undefined), the IC50 is over 20 µM.

As to `CCC(C)(C)c1ccc(CC(C)CN2C[C@@H](C)O[C@@H](C)C2)cc1` (some centres undefined) [AMOROLFINE], the IC50 was over 20 µM.

Regarding `O=[N+]([O-])c1c(Cl)cccc1-c1c[nH]cc1Cl` [PYRROLNITRIN], the IC50 is over 20 µM.

With `O=C1CCC(c2ccccc2)(C2CCN(Cc3ccccc3)CC2)C(=O)N1` (centres undefined) [BENZETIMIDE], the IC50 is over 20 µM.

Regarding `Cc1cc(CC(=O)O)n(C)c1[14C](=O)c1ccc(Cl)cc1`, the IC50 is over 20 µM.

For the compound `COc1c2ccoc2cc2oc(C)cc(=O)c12` [VISNAGIN], the IC50 was over 20 µM.

On to `CN1[C@@H]2C[C@@H](OC(=O)[C@@](O)(CO)c3ccccc3)C[C@H]1[C@@H]1O[C@@H]12`, for which the IC50 was over 20 µM.

As for `CC(C)(C)C(=O)OCOC(=O)[C@@H]1N2C(=O)[C@@H](NC(=O)[C@H](N)c3ccccc3)[C@H]2SC1(C)C` [PIVAMPICILLIN], the IC50 is over 20 µM.

Regarding `Cc1c(C(=O)N2CCOc3ccc(-c4ccc(N)nc4)cc3C2)ccc(S(C)(=O)=O)c1F`, the IC50 was over 20 µM.

Take `CC(C(O)c1ccc(O)cc1)N1CCC(Cc2ccccc2)CC1` (centres undefined) [IFENPRODIL]: the IC50 is over 20 µM.

As for `Cn1cnc2c(F)c(Nc3ccc(Br)cc3F)c(C(=O)NOCCO)cc21` [BINIMETINIB], the IC50 is over 20 µM.

On to `C[C@@H]1C(=O)O[C@H]2C[C@@]34[C@H]5C[C@@H](C(C)(C)C)[C@]36[C@@H](OC(=O)[C@@H]6O)O[C@@]4(C(=O)O5)[C@]21O` [GINKGOLIDE A], for which the IC50 was over 20 µM.

In the case of `Cc1cc(S(N)(=O)=O)ccc1NC(=O)COc1ccc(Cl)cc1C(=O)c1cc(Cl)cc(C#N)c1`, the IC50 is over 20 µM.

Turning to `CC1(C)CN(C(=O)c2ccc(-c3cccc4nc(NC(=O)C5CC5)nn34)cc2)C1` [SOLCITINIB], the IC50 is over 20 µM.

As for `COc1cc2occc2c2oc(=O)ccc12` [ISOBERGAPTENE], the IC50 was over 20 µM.

Consider `OC[C@@H](O)[C@H](O)[C@@H](O)CO` [XYLITOL], for which the IC50 is over 20 µM.

On to `CC(=O)OCC(=O)Nc1cc(C#N)cc(NC(=O)COC(C)=O)c1Cl` [ACREOZAST], for which the IC50 is over 20 µM.

With `NCC(O)c1ccc(O)cc1` (centres undefined) [OCTOPAMINE], the IC50 is over 20 µM.

Turning to `NC(=O)c1ccc(N(C(N)=O)c2c(F)cccc2F)nc1-c1ccc(F)cc1F` [VX-702], the IC50 is over 20 µM.

Take `CCCCCCCCCCCCOS(=O)(=O)O`: the IC50 was over 20 µM.
